Test system: HRV2-2A
Type: biochemical
Conditions: for Spaltung des Peptidsubstrats in trans durch HRV2-2A: 30 min 37°C

Ac-TRPIITTAGPSDMYVH-NH2 [Peptid H, Ac-TRPIITTAGPSDMYVH-NH₂]
Spaltung des Peptidsubstrats in trans durch HRV2-2A: spezifisch zwischen Alanin und Glycin

TRPIITTYGPSDMYVH [Peptid K, Peptidsubstrat mit Spaltsignal Tyr/Gly statt Ala/Gly]
Spaltung des Peptidsubstrats: 100%
Spaltung des Peptidsubstrats durch HRV2-2A in Anwesenheit von 2,5 M NaCl: vollständige Spaltung
Spaltung des Peptidsubstrats in trans durch HRV2-2A: mit der gleichen Effizienz wie die nativen Peptidsubstrate vergleichbarer Länge von HRV2-2A gespalten
